Test results from publication PMC11725581, “Developing novel Lin28 inhibitors by computer aided drug design” (Cell Death Discovery, 2025).
Positions count from the first letter of the chain named. Values belong to the compound of their own block, whether it stands above or below them.

Key:
[1] = tested on: Lin28b protein expression in DuNE cells; assay: Lin28b protein levels by immunoblotting in DuNE cells; assay type: cell-based; details: 20uM, 72 h
Protocol: We further tested whether the 13 candidate compounds could penetrate the cell membrane, endure cell-mediated metabolism and excretion, and inhibit Lin28 activities inside cancer cells. […] Since let-7 and Lin28b mutually regulate each other’s expression, increased let-7 expression by Lin28 inhibitors would suppress Lin28b protein levels.
Fig. 3 Validate CADD predicted compounds by cell-based assays. A, B DuNE cells were treated with Lin28b inhibitors for 72 h. Let-7d RNA levels were measured by real-time qPCR (A) and Lin28b protein levels were measured by immunoblotting (B). […] Cell proliferation rates were measured by Incucyte. D Overlay of 1H-15N HSQC spectra for Lin28b-ZKD (black), Lin28b-ZKD + Ln15 (orange), and Lin28b-ZKD + Ln268 (blue). Ligands were added in a 20:1 molar ratio. Approximately 20 residues are seen to shift (from black to orange/blue), with ca. 5 resonances disappearing for Lin28b-ZKD in the presence of Ln268. E Overlay of the 20 NMR models for 2CQF (gray) and 2LI8 (blue) showing the rearrangement of residues 137–160 in going from Lin28b-ZKD alone to the conformation with RNA present. The conformation of Lin28b-ZKD in the presence of the ligands described herein might resemble that of 2LI8, but with a larger conformational spread. All results are presented as the mean ± SD.
Total RNA was extracted by TRIZOL reagent (Invitrogen), treated with deoxyribonuclease and reversely transcribed by random hexamers and superscript II (Invitrogen). Real-time qPCR was performed on the ABI PRISM 7900 HT system (Applied Biosystems) using the FastStart Universal SYBR Green Master mix (Roche) following standard protocol as we reported. All real-time qPCR assays were carried out in triplicates from three independent cDNA syntheses. For immunoblotting assays, whole cell lysis was extracted by a buffer containing 50mM of Tris pH8.0, 150mM of NaCl, 1% NP40, 0.5% sodium deoxycholate, 0.1% SDS and proteinase and phosphatase inhibitors (Roche). Protein lysis separated by SDS-PAGE, transferred to polyvinylidene difluoride membrane, and blotted by specific antibodies.

[2] = molecular target: T1, Lin28b ZKD (Homo sapiens, UniProt Q6ZN17); assay: EMSA, Lin28b ZKD:pre-let-7d complex formation; assay type: binding; details: 1 μM Lin28 ZKD, 10 nM IRDye800-labeled pre-let-7d probe
T1 sequence (Q6ZN17 127-166 limits assumed): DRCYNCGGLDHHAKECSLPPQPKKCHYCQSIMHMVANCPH
Protocol: We next validated the newly developed compounds using EMSA, a non-florescent-based assay to detect Lin28b ZKD:pre-let-7 complex formation. Similar to the FP assays, we first optimized the experimental conditions by titrating: (1) IRDye800-labeled pre-let-7d RNA probe, (2) Lin28b ZKD protein, and (3) non-labeled pre-let-7 probe as a competitor (Fig. 2C). For the validation experiments, 1 μM Lin28 ZKD and 10 nM of IRDye800-labeled pre-let-7d probe were mixed with each candidate compound. Compounds C1632 and Ln15 were used as control Lin28 inhibitors, respectively. […] Regardless, we use these two biochemical assays to shortlist the most promising compounds for further characterization. […] While our inhibitors directly target the Lin28 ZKD, it is unclear whether C1632 may bind to domains other than the ZKD or allosterically disrupt Lin28’s capacity to bind its RNA substrates.
EMSA followed the standard protocols we published. An IRDye800CWN-labeled pre-Let-7d RNA probe (5’-IRD800CWN-[…]-3’) was purchased from IDT (Coralville, IA, USA). Lin28a or Lin28b proteins were incubated with 300 nM of probe in a standard 20 uL EMSA reaction in a reaction buffer containing 20 mM HEPES-NaOH, pH 7.4, 2 mM DTT, 3 mM MgCl2, 0.05% NP-40, protease inhibitors, and 0.1 ug poly[dI:dC]. After incubation for 30 min at 37 °C, reactions were loaded onto 4% non-denatured polyacrylamide gel in 0.5× TBE buffer. The RNA oligo bands were visualized by using the Li-Cor Odyssey 9120 Infrared Imaging System.

[3] = molecular target: T1, Lin28b ZKD; assay: Fluorescence polarization (FP) assay, Lin28b ZKD:pre-let-7d interaction; assay type: binding; details: for activity in protein-based assays: FP / EMSA; for IC50: 10 nM pre-let-7d probe, 1 μM Lin28b ZKD
Protocol: (§1) We conducted two biochemical assays, FP and EMSA, to validate the predicted compounds. To optimize the FP assays, we performed a series of titrations using: (1) FAM-labeled pre-let-7d RNA probe, (2) Lin28b ZKD protein, and (3) non-labeled pre-let-7 probe as a competitor (Fig. 2A). These assays yielded the optimal concentrations required for the subsequent FP validation assays, namely 10 nM for the pre-let-7d probe and 1 μM for Lin28b ZKD protein. The FP signal from the free probe was set as 0%, while the signal from the probe-ZKD complex in the absence of compounds was set as 100%. C1632 was used as a control Lin28 inhibitor (Fig. 2B). […] Since the docking pocket is almost identical between Lin28a and Lin28b homologs, we repeated the FP assays using Lin28a ZKD (Figure S2).
(§2) The fluorescein amidites (FAM)-tagged pre-Let-7d probe with the sequence of […] was purchased from Integrated DNA Technologies (IDT). The probe at the concentrations ranging from 1 nM to 50 uM was incubated with Lin28B (ZKD) or Lin28 (CSD+ZKD) to a final volume of 30 uL at room temperature for 20 min. To read the fluorescence, a TECAN 500 machine was used. Fluorescence polarization was calculated using the following equation:
P=(Fparrallel−Fperpendicular)/(Fparrallel+FperpendicularP)
where P is the fluorescence polarization reading, F parallel is the fluorescence intensity acquired from the parallel excitation plane, and F perpendicular is the fluorescence intensity acquired from the perpendicular direction of the excitation plane. The total fluorescence intensity is estimated using the following equation:
F=Fparallel+2FperpendicularF.
(§3) All the raw FP signal data from the TECAN 500 FP results were analyzed using Prism 8.0 (GraphPad, San Diego, CA, USA); normalized curves were plotted and IC50 values were estimated. All FP data were repeated three to five times.
Figure S1. Lin28b ZKD protein was incubated with the indicated compounds at the concentration of 0, 0.1, 0.2, 0.5, 1, 2, 5, 10, 20, 50, 100, and 200uM. FP signals were measured and plotted relative to that from vehicle.

[4] = molecular target: T2, Lin28a ZKD (Homo sapiens, UniProt Q9H9Z2); assay: Fluorescence polarization (FP) assay, Lin28a ZKD:pre-let-7 interaction; assay type: binding; details: 0-200 uM
T2 sequence (Q9H9Z2 137-176 limits assumed): T1 sequence (Q6ZN17 127-166 limits assumed) with S17K, Y27F, M32S, N37S, H40L
Protocol: as §1
as §2, with “equation: […]” for “equation:”
as §3
Figure S2. Lin28a ZKD protein was incubated with the indicated compounds at the concentration of 0, 0.1, 0.2, 0.5, 1, 2, 5, 10, 20, 50, 100, and 200uM. FP signals were measured and plotted relative to that from vehicle.

- activity in protein-based assays [3]: active
- potency in blocking the Lin28a ZKD:pre-let-7 interaction (FP) relative to parents [4]: more potent than Ln15 and Ln115
SMILES: O=c1cccc(Nc2ncc(O)cc2O)[nH]1 [Ln298]
- inhibition of Lin28b ZKD:pre-let-7d complex formation (EMSA) [2]: capable of inhibiting Lin28:pre-let-7d complex formation in a dose-dependent manner
- effect on Lin28b protein expression [1]: suppressed Lin28b protein expression

- FP potency relative to Ln15 ([3]; FP assays used for SAR guided design): outperformed Ln15
SMILES: CC(C)(C)c1ccc(O)c(Nc2cccc(=O)[nH]2)c1 [Ln250]

- activity in protein-based assays [3]: inactive
SMILES: O=c1cccc(Nc2ccccc2O)[nH]1 [Ln296]

- potency in blocking the Lin28a ZKD:pre-let-7 interaction (FP) relative to parents [4]: more potent than Ln15 and Ln115
SMILES: O=c1cccc(Nc2cccc(O)c2O)[nH]1 [Ln306]
- inhibition of Lin28b ZKD:pre-let-7d complex formation (EMSA) [2]: capable of inhibiting Lin28:pre-let-7d complex formation in a dose-dependent manner

- activity in protein-based assays [3]: inactive
SMILES: O=c1cccc(Nc2ccc(O)cc2O)[nH]1 [Ln295]

- IC50 [3]: 3.63 µM
- potency in blocking the Lin28a ZKD:pre-let-7 interaction (FP) relative to parents [4]: more potent than Ln15 and Ln115
SMILES: Cc1c(O)cnc(Nc2cccc(=O)[nH]2)c1O [Ln302]
- inhibition of Lin28b ZKD:pre-let-7d complex formation (EMSA) [2]: capable of inhibiting Lin28:pre-let-7d complex formation in a dose-dependent manner

- IC50 [3]: 4.67 µM
- activity in protein-based assays [3]: higher potency in FP assays
- potency in blocking the Lin28a ZKD:pre-let-7 interaction (FP) relative to parents [4]: more potent than Ln15 and Ln115
SMILES: CC(C)c1cc(Nc2csc(=O)[nH]2)c(O)cc1O [Ln267]
- effect on Lin28b protein expression [1]: suppressed Lin28b protein expression

More lines, now with the values behind:

SMILES: Cc1c(F)c(O)c(F)c2c(=O)[nH]c(-c3cccc(=O)[nH]3)nc12 [Ln273]
- effect on Lin28b protein expression [1]: suppressed Lin28b protein expression

SMILES: O=c1cccc(-c2nc(=O)c3cc(O)c(CO)cc3[nH]2)[nH]1 [Ln276]
- inhibition of Lin28b ZKD:pre-let-7d complex formation (EMSA) [2]: capable of inhibiting Lin28:pre-let-7d complex formation in a dose-dependent manner

SMILES: Cc1cc2[nH]c(-c3cccc(=O)[nH]3)nc(=O)c2cc1O [Ln274]
- inhibition of Lin28b ZKD:pre-let-7d complex formation (EMSA) [2]: capable of inhibiting Lin28:pre-let-7d complex formation in a dose-dependent manner

SMILES: Cn1cnc2c(=O)[nH]c(-c3nc(=O)c4cc(O)c(F)cc4[nH]3)cc21 [Ln279]
- inhibition of Lin28b ZKD:pre-let-7d complex formation (EMSA) [2]: capable of inhibiting Lin28:pre-let-7d complex formation in a dose-dependent manner
- activity in protein-based assays [3]: active
- potency in blocking the Lin28a ZKD:pre-let-7 interaction (FP) relative to parents [4]: more potent than Ln15 and Ln115

SMILES: Cc1cc(O)cc2c(=O)nc(-c3nccc(=O)[nH]3)[nH]c12 [Ln282]
- activity in protein-based assays [3]: inactive

SMILES: CN(C)c1ccc(=O)[nH]c1-c1nc(=O)c2cc(O)c(F)cc2[nH]1 [Ln277]
- activity in protein-based assays [3]: inactive

SMILES: Cc1cccc(Nc2csc(=O)[nH]2)c1O [Ln269]
- inhibition of Lin28b ZKD:pre-let-7d complex formation (EMSA) [2]: capable of inhibiting Lin28:pre-let-7d complex formation in a dose-dependent manner
- effect on Lin28b protein expression [1]: suppressed Lin28b protein expression

SMILES: Cc1cc(-c2nc(=O)c3cc(O)c(F)cc3[nH]2)[nH]c(=O)c1 [Ln275]
- activity in protein-based assays [3]: inactive

SMILES: O=c1cccc(-c2nc3cc(F)c(O)c(F)c3c(=O)[nH]2)[nH]1 [Ln272]
- effect on Lin28b protein expression [1]: suppressed Lin28b protein expression
- potency in blocking the Lin28a ZKD:pre-let-7 interaction (FP) relative to parents [4]: more potent than Ln15 and Ln115

SMILES: O=c1cccc(Nc2ccncc2O)[nH]1 [Ln300]
- inhibition of Lin28b ZKD:pre-let-7d complex formation (EMSA) [2]: capable of inhibiting Lin28:pre-let-7d complex formation in a dose-dependent manner
- effect on Lin28b protein expression [1]: suppressed Lin28b protein expression
- activity in protein-based assays [3]: active
- potency in blocking the Lin28a ZKD:pre-let-7 interaction (FP) relative to parents [4]: more potent than Ln15 and Ln115

SMILES: O=c1cccc(-c2nc(=O)c3cc(O)c(F)cc3[nH]2)[nH]1 [Ln115]
- IC50 [3]: 21 µM
